Earlier results in publication PMC9186412, “Rational Framework for the Design of Trp- and Arg-Rich Peptide Antibiotics Against Multidrug-Resistant Bacteria” (Frontiers in Microbiology, 2022).
Where two headings read alike, the source gives them in different places.

Test system: CDC AR isolates
Design: key: S (green), susceptible; I (blue), intermediate; R (red), resistant
Settings: data provided by the CDC, ref CDC, cited from earlier work
Text: Supplement Table_3.XLSX, sheet "CDC AR isolates profiles" | column: G(-) strains

[1] = Acinetobacter baumannii AB273, CDC AR isolate
[2] = Acinetobacter baumannii AB274, CDC AR isolate
[3] = Acinetobacter baumannii AB275, CDC AR isolate
[4] = Acinetobacter baumannii AB276, CDC AR isolate
[5] = Enterobacter cloacae E62, CDC AR isolate
[6] = Enterobacter cloacae E544, CDC AR isolate
[7] = Enterobacter cloacae E545, CDC AR isolate
[8] = Enterobacter cloacae E546, CDC AR isolate
[9] = Escherichia coli EC541, CDC AR isolate
[10] = Escherichia coli EC543, CDC AR isolate
[11] = Escherichia coli EC544, CDC AR isolate
[12] = Escherichia coli EC549, CDC AR isolate
[13] = Klebsiella pneumoniae KP542, CDC AR isolate
[14] = Klebsiella pneumoniae KP548, CDC AR isolate
[15] = Klebsiella pneumoniae KP550, CDC AR isolate
[16] = Klebsiella pneumoniae KP552, CDC AR isolate
[17] = Pseudomonas aeruginosa PA229, CDC AR isolate
[18] = Pseudomonas aeruginosa PA230, CDC AR isolate
[19] = Pseudomonas aeruginosa PA231, CDC AR isolate
[20] = Pseudomonas aeruginosa PA232, CDC AR isolate
[21] = Pseudomonas aeruginosa PA239, CDC AR isolate

NCC[C@H](O)C(=O)N[C@@H]1C[C@H](N)[C@@H](O[C@H]2O[C@H](CN)[C@@H](O)[C@H](O)[C@H]2O)[C@H](O)[C@H]1O[C@H]1O[C@H](CO)[C@@H](O)[C@H](N)[C@H]1O [Amikacin]
Antibiotic susceptibility profile [1]: R | Antibiotic susceptibility profile [2]: S | Antibiotic susceptibility profile [3]: R | Antibiotic susceptibility profile [4]: I | Antibiotic susceptibility profile [5]: S | Antibiotic susceptibility profile [6]: S | Antibiotic susceptibility profile [7]: S | Antibiotic susceptibility profile [8]: R | Antibiotic susceptibility profile [9]: R | Antibiotic susceptibility profile [10]: S | Antibiotic susceptibility profile [11]: S | Antibiotic susceptibility profile [12]: S | Antibiotic susceptibility profile [13]: R | Antibiotic susceptibility profile [14]: S | Antibiotic susceptibility profile [15]: S | Antibiotic susceptibility profile [16]: S | Antibiotic susceptibility profile [17]: S | Antibiotic susceptibility profile [18]: R | Antibiotic susceptibility profile [19]: S | Antibiotic susceptibility profile [20]: S | Antibiotic susceptibility profile [21]: R

C[C@H]1[C@H](NC(=O)/C(=N\OC(C)(C)C(=O)O)c2csc(N)n2)C(=O)N1S(=O)(=O)O [Azreonam]
Antibiotic susceptibility profile [9]: R | Antibiotic susceptibility profile [10]: R | Antibiotic susceptibility profile [11]: R | Antibiotic susceptibility profile [12]: R | Antibiotic susceptibility profile [13]: R | Antibiotic susceptibility profile [14]: R | Antibiotic susceptibility profile [15]: R | Antibiotic susceptibility profile [16]: R | Antibiotic susceptibility profile [17]: R | Antibiotic susceptibility profile [18]: S | Antibiotic susceptibility profile [19]: R | Antibiotic susceptibility profile [20]: S | Antibiotic susceptibility profile [21]: R

CO/N=C(\C(=O)N[C@@H]1C(=O)N2C(C(=O)[O-])=C(C[N+]3(C)CCCC3)CS[C@H]12)c1csc(N)n1 [Cefepime]
Antibiotic susceptibility profile [1]: R | Antibiotic susceptibility profile [2]: R | Antibiotic susceptibility profile [3]: R | Antibiotic susceptibility profile [4]: R | Antibiotic susceptibility profile [5]: S | Antibiotic susceptibility profile [6]: R | Antibiotic susceptibility profile [7]: R | Antibiotic susceptibility profile [8]: R | Antibiotic susceptibility profile [9]: R | Antibiotic susceptibility profile [10]: R | Antibiotic susceptibility profile [11]: R | Antibiotic susceptibility profile [12]: R | Antibiotic susceptibility profile [13]: R | Antibiotic susceptibility profile [14]: R | Antibiotic susceptibility profile [15]: R | Antibiotic susceptibility profile [16]: R | Antibiotic susceptibility profile [17]: R | Antibiotic susceptibility profile [18]: R | Antibiotic susceptibility profile [19]: R | Antibiotic susceptibility profile [20]: S | Antibiotic susceptibility profile [21]: R

CO/N=C(\C(=O)N[C@@H]1C(=O)N2C(C(=O)O)=C(COC(C)=O)CS[C@H]12)c1csc(N)n1 [Cefotaxime]
Antibiotic susceptibility profile [1]: R | Antibiotic susceptibility profile [2]: R | Antibiotic susceptibility profile [3]: R | Antibiotic susceptibility profile [4]: R | Antibiotic susceptibility profile [5]: R | Antibiotic susceptibility profile [6]: R | Antibiotic susceptibility profile [7]: R | Antibiotic susceptibility profile [8]: R | Antibiotic susceptibility profile [9]: R | Antibiotic susceptibility profile [10]: R | Antibiotic susceptibility profile [11]: R | Antibiotic susceptibility profile [12]: R | Antibiotic susceptibility profile [13]: R | Antibiotic susceptibility profile [14]: R | Antibiotic susceptibility profile [15]: R | Antibiotic susceptibility profile [16]: R

CO/N=C(\C(=O)N[C@@H]1C(=O)N2C(C(=O)O)=C(CSc3nc(=O)c(=O)[nH]n3C)CS[C@H]12)c1csc(N)n1 [Ceftriaxone]
Antibiotic susceptibility profile [1]: R | Antibiotic susceptibility profile [2]: R | Antibiotic susceptibility profile [3]: R | Antibiotic susceptibility profile [4]: R | Antibiotic susceptibility profile [5]: R | Antibiotic susceptibility profile [6]: R | Antibiotic susceptibility profile [7]: R | Antibiotic susceptibility profile [8]: R | Antibiotic susceptibility profile [9]: R | Antibiotic susceptibility profile [10]: R | Antibiotic susceptibility profile [11]: R | Antibiotic susceptibility profile [12]: R | Antibiotic susceptibility profile [13]: R | Antibiotic susceptibility profile [14]: R | Antibiotic susceptibility profile [15]: R | Antibiotic susceptibility profile [16]: R

O=C(O)c1cn(C2CC2)c2cc(N3CCNCC3)c(F)cc2c1=O [Ciprofloxacin]
Antibiotic susceptibility profile [1]: R | Antibiotic susceptibility profile [2]: R | Antibiotic susceptibility profile [3]: R | Antibiotic susceptibility profile [4]: R | Antibiotic susceptibility profile [17]: R | Antibiotic susceptibility profile [18]: R | Antibiotic susceptibility profile [19]: R | Antibiotic susceptibility profile [20]: R | Antibiotic susceptibility profile [21]: R

C[C@@H](O)[C@H]1C(=O)N2C(C(=O)O)=C(S[C@@H]3CN[C@H](CNS(N)(=O)=O)C3)[C@H](C)[C@H]12 [Doripenem]
Antibiotic susceptibility profile [1]: R | Antibiotic susceptibility profile [2]: R | Antibiotic susceptibility profile [3]: R | Antibiotic susceptibility profile [4]: R | Antibiotic susceptibility profile [5]: S | Antibiotic susceptibility profile [6]: R | Antibiotic susceptibility profile [7]: S | Antibiotic susceptibility profile [8]: R | Antibiotic susceptibility profile [9]: S | Antibiotic susceptibility profile [10]: I | Antibiotic susceptibility profile [11]: R | Antibiotic susceptibility profile [12]: R | Antibiotic susceptibility profile [13]: I | Antibiotic susceptibility profile [14]: R | Antibiotic susceptibility profile [15]: R | Antibiotic susceptibility profile [16]: R | Antibiotic susceptibility profile [17]: R | Antibiotic susceptibility profile [18]: R | Antibiotic susceptibility profile [19]: R | Antibiotic susceptibility profile [20]: S | Antibiotic susceptibility profile [21]: R

C[C@@H](O)[C@H]1C(=O)N2C(C(=O)O)=C(S[C@@H]3CN[C@H](C(=O)Nc4cccc(C(=O)O)c4)C3)[C@H](C)[C@H]12 [Ertapenem]
Antibiotic susceptibility profile [5]: S | Antibiotic susceptibility profile [7]: S | Antibiotic susceptibility profile [9]: I | Antibiotic susceptibility profile [10]: R | Antibiotic susceptibility profile [11]: R | Antibiotic susceptibility profile [12]: R | Antibiotic susceptibility profile [13]: R | Antibiotic susceptibility profile [14]: R | Antibiotic susceptibility profile [15]: R | Antibiotic susceptibility profile [16]: R

C[C@@H](O)[C@H]1C(=O)N2C(C(=O)O)=C(SCCN=CN)C[C@H]12 [Imipenem]
Antibiotic susceptibility profile [1]: R | Antibiotic susceptibility profile [2]: R | Antibiotic susceptibility profile [3]: R | Antibiotic susceptibility profile [4]: S | Antibiotic susceptibility profile [5]: S | Antibiotic susceptibility profile [6]: R | Antibiotic susceptibility profile [7]: I | Antibiotic susceptibility profile [8]: R | Antibiotic susceptibility profile [9]: I | Antibiotic susceptibility profile [10]: S | Antibiotic susceptibility profile [11]: R | Antibiotic susceptibility profile [12]: I | Antibiotic susceptibility profile [13]: I | Antibiotic susceptibility profile [14]: R | Antibiotic susceptibility profile [15]: R | Antibiotic susceptibility profile [16]: R | Antibiotic susceptibility profile [17]: R | Antibiotic susceptibility profile [18]: R | Antibiotic susceptibility profile [19]: R | Antibiotic susceptibility profile [20]: R | Antibiotic susceptibility profile [21]: R

CN(C)c1ccc(O)c2c1C[C@H]1C[C@H]3[C@H](N(C)C)C(O)=C(C(N)=O)C(=O)[C@@]3(O)C(O)=C1C2=O [Minocycline]
Antibiotic susceptibility profile [1]: I | Antibiotic susceptibility profile [2]: I | Antibiotic susceptibility profile [3]: I | Antibiotic susceptibility profile [4]: S

C/C(=C\C(=O)OCCCCCCCCC(=O)O)C[C@@H]1OC[C@H](C[C@@H]2O[C@H]2[C@@H](C)[C@H](C)O)[C@@H](O)[C@H]1O [Mupirocin]
Antibiotic susceptibility profile (Staphylococcus aureus SA561, CDC AR isolate): R

CN(C)c1cc(CNCC(C)(C)C)c(O)c2c1C[C@H]1C[C@H]3[C@H](N(C)C)C(O)=C(C(N)=O)C(=O)[C@@]3(O)C(O)=C1C2=O [Omadacycline]
Antibiotic susceptibility profile [13]: R | Antibiotic susceptibility profile [14]: R | Antibiotic susceptibility profile [15]: R | Antibiotic susceptibility profile [16]: S

CCN1CCN(C(=O)N[C@@H](C(=O)N[C@@H]2C(=O)N3[C@@H]2SC(C)(C)[C@@H]3C(=O)O)c2ccccc2)C(=O)C1=O [Piperacillin]
Antibiotic susceptibility profile [1]: R | Antibiotic susceptibility profile [2]: R | Antibiotic susceptibility profile [3]: R | Antibiotic susceptibility profile [4]: R | Antibiotic susceptibility profile [17]: R | Antibiotic susceptibility profile [18]: R | Antibiotic susceptibility profile [19]: R | Antibiotic susceptibility profile [20]: S | Antibiotic susceptibility profile [21]: R
